# Laboratory results reported in EP2666869A1 (priority 2012, dated 2013).
# Values joined by “and” are separate entries in the source; they are usually repeats but may differ in a detail not shown here. Equal entries are not always repeated. Where two headings read alike, the source gives them in different places.
# What was measured:
# [1] = Sorafenib pharmacokinetic analysis (plasma concentrations, Bayesian estimation of AUC and Cav); type: in vivo, human; conditions: for AUC at 720 h: Cumulated sorafenib AUC, day 0 to day 30; for AUC tau at 720 h: day 30
# Description: (§1) Adverse events were reported and graded according to the National Cancer Institute Common Terminology Criteria (NCI-CTCAE) on days 15 and 30 after treatment initiation. Diarrhea and HFSR were graded according to the NCI-CTCAE 3.0 version, while hypertension was retrospectively graded according to the 4.0 version. In case of grade 4 hematological toxicity or grade 3 or 4 non-hematological toxicity, treatment was discontinued until side effects recovered to grade 1, or returned to baseline. Subsequent dose reductions were left at the discretion of the treating physician.
# This Bayesian estimator is based on a 1-compartment model with saturated absorption, first-order intestinal loss and linear elimination.
# For descriptive statistics, qualitative variables were expressed in numbers and percentages and quantitative ones in medians [inter-quartile intervals]. Glomerular filtration rate (GFR) and lean body mass (LBM) were estimated using the Modification of the Diet in Renal Disease (MDRD) formula and the Green's formula, respectively. […] Then, the relationships between the dose-standardized AUC and other variables were tested using two-sample Wilcoxon tests or Kruskal-Wallis tests for qualitative variables with two modalities or more than two modalities, respectively, and by Spearman rank correlation coefficient tests for quantitative ones. The following variables were tested: age, gender, ECOG status, weight, body mass index (BMI), LBM, primary tumor site, polymorphisms of CYP3A5 (rs776746), UGT1A9 (rsl78868320, rs6714486, rs72551330), ABCB1 (rs2231137, rs1045642), ABCG2 (rs2231137, rs2231142, rs2622604), alanine aminotransferase (ALT), aspartate aminotransferase (AST), alkaline phosphatase (ALP), gamma-glutamyl transpeptidase (GGT), bilirubin, albumin, C-Reactive Protein, creatinine and MDRD GFR. A stepwise multiple linear regression was then performed with variables significant with p < 0.10 in the first step included in the regression and variables significant with p < 0.05 kept in the final model. […] The cumulated AUC between day 0 and day 30 was calculated as the sum of two areas, (0-15 days) and (15-30 days) which were estimated using the trapezoidal rule. The area was multiplied by 24 to express the result in mg/L.h. […] On day 0, Cav0 was fixed at 0 mg/L.
# [2] = Toxicity assessment (NCI-CTCAE grading) and risk factor analysis in the first month of sorafenib treatment; type: in vivo, human
# Description: as §1
# For descriptive statistics, qualitative variables were expressed in numbers and percentages and quantitative ones in medians [inter-quartile intervals]. Glomerular filtration rate (GFR) and lean body mass (LBM) were estimated using the Modification of the Diet in Renal Disease (MDRD) formula and the Green's formula, respectively. […] Then, the relationships between the dose-standardized AUC and other variables were tested using two-sample Wilcoxon tests or Kruskal-Wallis tests for qualitative variables with two modalities or more than two modalities, respectively, and by Spearman rank correlation coefficient tests for quantitative ones. The following variables were tested: age, gender, ECOG status, weight, body mass index (BMI), LBM, primary tumor site, polymorphisms of CYP3A5 (rs776746), UGT1A9 (rsl78868320, rs6714486, rs72551330), ABCB1 (rs2231137, rs1045642), ABCG2 (rs2231137, rs2231142, rs2622604), alanine aminotransferase (ALT), aspartate aminotransferase (AST), alkaline phosphatase (ALP), gamma-glutamyl transpeptidase (GGT), bilirubin, albumin, C-Reactive Protein, creatinine and MDRD GFR. A stepwise multiple linear regression was then performed with variables significant with p < 0.10 in the first step included in the regression and variables significant with p < 0.05 kept in the final model. For the analysis of sorafenib-induced toxicities in the first month of treatment, we used dichotomous end points expressed as any toxicity ≥ grade 3 (yes or no), or grade ≥ 2 HFSR (yes or no), or grade ≥ 2 diarrhea (yes or no), or grade ≥ 2 hypertension (yes or no). The cumulated AUC between day 0 and day 30 was calculated as the sum of two areas, (0-15 days) and (15-30 days) which were estimated using the trapezoidal rule. The area was multiplied by 24 to express the result in mg/L.h. […] On day 0, Cav0 was fixed at 0 mg/L.
# The univariate analysis of toxicity risk factors was carried out using two sample Wilcoxon tests for quantitative variables and Chi square or Fisher exact tests for qualitative ones. Fisher exact tests were performed as soon as at least one expected value was lower than 5. […] The multivariate analysis was performed by a stepwise logistic regression. Variables with p-values < 0.10 in the univariate analysis were included in the regression and variables with a Wald test p-value < 0.05 were kept in the final model. All the tests were two-sided, and they were considered significant when p-values were < 0.05. The receiver operating characteristic (ROC) curve was constructed to examine the value of an AUCcum threshold predicting a toxicity of grade ≥ 3 in the first month of treatment. The diagnostic accuracy values of sensitivity and specificity were determined, as well as the positive predictive value (PPV) and the negative predictive value (NPV). Computations were performed using the SAS V9 statistical package (SAS institute, Cary, NC).
# [3] = AUCcum threshold value of 3,161 mg/L.h, toxicity of grade ≥ 3
compound,measurement,setting,value
CNC(=O)c1cc(Oc2ccc(NC(=O)Nc3ccc(Cl)c(C(F)(F)F)c3)cc2)ccn1 [sorafenib],Spearman's coefficient (rho),[1]; dose-normalized AUC day 15 versus Creatinine (µmol/L),-0.26
same,Spearman's coefficient (rho),[1]; dose-normalized AUC day 15 versus LBM (kg),-0.28
same,AUC at 720 h,"[1]; human, plasma, patients with Hand Foot Skin Reaction ≥ grade 2, median [interquartile range]",3310 µg·h/mL
same,AUC at 720 h,"[1]; human, plasma, patients with any toxicity ≥ grade 3, median [interquartile range]",3500 µg·h/mL
same,AUC at 720 h,"[1]; human, plasma, patients without Hand Foot Skin Reaction ≥ grade 2, median [interquartile range]",2250 µg·h/mL
same,AUC at 720 h,"[1]; human, plasma, patients without any toxicity ≥ grade 3, median [interquartile range]",2250 µg·h/mL
same,AUC tau at 360 h,"[1]; human, plasma, day 15, females, read-out: median absolute AUC",78.3 µg·h/mL
same,AUC tau at 360 h,"[1]; human, plasma, day 15, males, read-out: median absolute AUC",52.4 µg·h/mL
same,AUC tau at 720 h,"[1]; human, plasma, females, read-out: median absolute AUC",82.2 µg·h/mL
same,AUC tau at 720 h,"[1]; human, plasma, males, read-out: median absolute AUC",55.2 µg·h/mL
same,AUC tau at 12 h,"[1]; human, plasma, median absolute sorafenib AUC, day 15, all patients, AUC 0 to 12 hours, median [interquartile range]",62 µg·h/mL
same,AUC tau at 720 h,"[1]; human, plasma, median absolute sorafenib AUC, all patients, median [interquartile range]",61 µg·h/mL
same,NPV,[2]; [3],63.3%
same,PPV,[2]; [3],75.8%
same,area under the ROC curve for the AUCcum threshold,"[2]; CI 95%, 61-78%",69%
same,Any toxicity ≥ grade 3: No,[2]; CYP3A5 6986 A>G AA (*1/*1),0 (0) n (%)
same,Any toxicity ≥ grade 3: Yes,[2]; CYP3A5 6986 A>G AA (*1/*1),4 (100) n (%)
same,Any toxicity ≥ grade 3: No,[2]; CYP3A5 6986 A>G AG (*1/*3),6 (67) n (%)
same,Any toxicity ≥ grade 3: Yes,[2]; CYP3A5 6986 A>G AG (*1/*3),3 (33) n (%)
same,Any toxicity ≥ grade 3: No,[2]; CYP3A5 6986 A>G GG (*3/*3),24 (63) n (%)
same,Any toxicity ≥ grade 3: Yes,[2]; CYP3A5 6986 A>G GG (*3/*3),14 (37) n (%)
same,Any toxicity ≥ grade 3: No,[2]; Female,5 (33.3) n (%)
same,Any toxicity ≥ grade 3: Yes,[2]; Female,10 (66.7) n (%)
same,Hand Foot Skin Reaction ≥ grade 2: No,[2]; Female,5 (33.3) n (%)
same,Hand Foot Skin Reaction ≥ grade 2: Yes,[2]; Female,10 (66.7) n (%)
same,Any toxicity ≥ grade 3: No,[2]; Male,25 (67.6) n (%)
same,Any toxicity ≥ grade 3: Yes,[2]; Male,12 (32.4) n (%)
same,Hand Foot Skin Reaction ≥ grade 2: No,[2]; Male,25 (52.0) n (%)
same,Hand Foot Skin Reaction ≥ grade 2: Yes,[2]; Male,12 (48.0) n (%)
same,Occurrence during first month of treatment: Diarrhea,[2]; No,37 (69) n (%)
same,Occurrence during first month of treatment: Hypertension,[2]; No,28 (52) n (%)
same,Occurrence during first month of treatment: Hand-foot skin reaction,"[2]; No, 54 patients",17 (31) n (%)
same,AUCcum threshold predicting a toxicity of grade ≥ 3,"[2]; ROC curve, first month of treatment","3,161 mg/L.h"
same,Diarrhea ≥ grade 2: No,[2]; UGT1A9 -275 T>A m/m,0 (0) n (%)
same,Diarrhea ≥ grade 2: Yes,[2]; UGT1A9 -275 T>A m/m,0 (0) n (%)
same,Diarrhea ≥ grade 2: No,[2]; UGT1A9 -275 T>A wt/m,2 (50) n (%)
same,Diarrhea ≥ grade 2: Yes,[2]; UGT1A9 -275 T>A wt/m,2 (50) n (%)
same,Diarrhea ≥ grade 2: No,[2]; UGT1A9 -275 T>A wt/wt,43 (93) n (%)
same,Diarrhea ≥ grade 2: Yes,[2]; UGT1A9 -275 T>A wt/wt,3 (7) n (%)
same,Diarrhea ≥ grade 2: No,[2]; UGT1A9 -2152 C>T m/m,0 (0) n (%)
same,Diarrhea ≥ grade 2: Yes,[2]; UGT1A9 -2152 C>T m/m,0 (0) n (%)
same,Diarrhea ≥ grade 2: No,[2]; UGT1A9 -2152 C>T wt/m,2 (50) n (%)
same,Diarrhea ≥ grade 2: Yes,[2]; UGT1A9 -2152 C>T wt/m,2 (50) n (%)
same,Diarrhea ≥ grade 2: No,[2]; UGT1A9 -2152 C>T wt/wt,42 (93) n (%)
same,Diarrhea ≥ grade 2: Yes,[2]; UGT1A9 -2152 C>T wt/wt,3 (7) n (%)
same,Occurrence during first month of treatment: Diarrhea,[2]; Yes,17 (31) n (%)
same,Occurrence during first month of treatment: Hypertension,[2]; Yes,25 (46) n (%)
same,Occurrence during first month of treatment: Hand-foot skin reaction,"[2]; Yes, 54 patients",37 (69) n (%)
same,Occurrence during first month of treatment: Diarrhea,[2]; grade < 2,12 n (%)
same,Occurrence during first month of treatment: Hand-foot skin reaction,[2]; grade < 2,15 n (%)
same,Occurrence during first month of treatment: Hypertension,[2]; grade < 2,5 n (%)
same,Occurrence during first month of treatment: Diarrhea,[2]; grade ≥ 2 (grade 2-3),5 (9%) n (%) and 5 n (%)
same,Occurrence during first month of treatment: Hand-foot skin reaction,[2]; grade ≥ 2 (grade 2-3),22 (41%) n (%) and 22 n (%)
same,Occurrence during first month of treatment: Hypertension,[2]; grade ≥ 2 (grade 2-3),20 (38%) n (%) and 20 n (%)
same,grade 3 or 4 toxicity: diarrhea,"[2]; on days 15 or 30, 5% of the 22 patients with grade 3 or 4 toxicity",1 n
same,grade 3 or 4 toxicity: hypertension,"[2]; on days 15 or 30, 27% of the 22 patients with grade 3 or 4 toxicity",6 n
same,grade 3 or 4 toxicity: HFSR,"[2]; on days 15 or 30, 68% of the 22 patients with grade 3 or 4 toxicity",15 n
same,patients who experienced grade 3 or 4 toxicity,"[2]; on days 15 or 30, twenty-two of 54 patients",41%
same,patients who required dose reductions because of toxic effects,[2]; over the study period,9 n
same,patients who required interruption of treatment because of toxic effects,[2]; over the study period,10 n
same,patients who required dose reductions or interruption of treatment because of toxic effects,"[2]; over the study period, nineteen patients",35%
same,toxic death in relation with sorafenib,[2]; study period,no toxic death
